What was measured:
IL6, CXCL1, CXCL10, IL1β = experiment: SASP mRNA qRT-PCR in doxorubicin-aged mice (Example 8-6); type: in vivo, C57BL6J mice; conditions: doxorubicin-aged mice, LX-112 70 mg/kg oral daily 21 days; DOX without LX = 100%
Protocol: After adapting 8-week-old male C57BL6J mice (purchased from KRIBB Laboratory Animal Resource Center) to the experimental environment for 1 week, doxorubicin, an anticancer drug, was administered intraperitoneally at a concentration of 10 mg/kg, and mice that were induced to age for more than 10 days were assigned to an experimental group and a control group. LX-112 was mixed with 0.5% CMC-Na solution (purchased from Sigma) and administered orally at a concentration of 70 mg/kg daily for 21 days. The control group was administered only the solution in the same volume. After drug administration was completed, the method described in each Example below was performed.
Using cDNA synthesized in the same manner as Example 7-6, qRT-PCR was performed and analyzed for aging-related inflammation and fibrosis secretory factors (SASP) such as IL6, CXCL1, CXCL10, and IL1β. […] Table 45 calculates the mRNA amount of each factor after aging was induced by treatment with the anticancer drug as 100% and compared it with the mRNA amount of each factor after treatment with LX-112.

HMGB1 = HMGB1 ELISA in culture medium of senescent foreskin cells (Example 10, Table 62); type: cell-based, human
Protocol: After 6 hours, the amounts of HMGB1 and HMGN1 secreted into the cell culture medium were measured using an enzyme-linked immunosorbent assay (ELISA Kit, purchased from AssayGenie).

SAOS-2 = experiment: CellTiter-Glo cell viability of senescent SAOS-2 cancer cells (Example 2-2); type: cell-based, human; conditions: DOX → LX (LX-112 5 μM)
Protocol: The standard for treating various cancers, including osteosarcoma, is repeated chemotherapy. Accordingly, aging was induced in SAOS-2 in the same manner as in Example 2-1, and then (i) treated again with doxorubicin (DOX→DOX) or (ii) treated with the LX-112 (5 μM) composition (DOX→LX-112).

IL6, MCP1 = experiment: serum IL6 and MCP1 ELISA in naturally aged mice (Example 7-5); type: in vivo, C57BL6J mice; conditions: LX-112 70 mg/kg oral daily 21 days
Protocol: (§1) After 22-month-old female C57BL6J mice (purchased from KRIBB Laboratory Animal Resource Center) were adapted to the experimental environment for one week, the aged mice were randomized into an experimental group and a control group. 8-week-old mice that were not aged were used as controls. LX-112 was mixed with 0.5% CMC-Na solution (purchased from Sigma) and administered orally at a concentration of 70 mg/kg daily for 21 days. The control group was administered only the solution in the same volume. After drug administration was completed, the method described in each Example below was performed.
Serum collected from mice was stored at −80° C. until use. The amounts of IL6 and MCP1, which are aging-related inflammation secretory factors (SASPs), were measured in serum using an enzyme-linked immunosorbent assay (ELISA Kit, purchased from R&D Systems).

SA-β-gal = SA-β-gal staining of tissue sections of naturally aged mice (Example 7-3); type: in vivo, C57BL6J mice; conditions: stained area, LX-112 70 mg/kg oral daily 21 days
Protocol: as §1
The mouse was sacrificed, tissue sections were prepared from the organ tissues of each region, and stained for an aging marker (SA-β-gal) in the same manner as Example 1-1. Specifically, fat was removed from the tissues of each area collected from mice and fixed in 4% formalin at room temperature for more than 24 hours. For cryopreservation, the cells were placed in 30% sucrose for more than 8 hours and then rapidly frozen in cryoprotectant OCT medium for cryosectioning. The rapidly frozen tissue was commissioned to Histoa, a company specializing in histopathology services, and frozen sections were produced. The prepared frozen tissue sections were cut to a thickness of 8 μm, sectioned on a slide cover, dried at room temperature for 30 minutes, and then stored at −80° C. until use. After staining the aging marker (SA-β-gal), the images were taken through an optical microscope, and the area of the stained area was calculated using the Image J program and quantified by normalizing it based on the total area. […] FIG. 2 is a photo result of staining of adipose tissue.

IL6, activin A = experiment: serum IL6 and activin A ELISA in obesity-aged mice (Example 9-3); type: in vivo, C57BL6J mice; conditions: LX-112 70 mg/kg oral daily 21 days
Protocol: 15-week-old male C57BL6J mice (purchased from Jackson Laboratories), whose obesity was induced by a high-fat diet, were adapted to the experimental environment for one week, and then the mice were randomized into an experimental group and a control group. LX-112 was mixed with 0.5% CMC-Na solution (purchased from Sigma) and administered orally at a concentration of 70 mg/kg daily for 21 days. The control group was administered only the solution in the same volume. After drug administration was completed, the method described in each Example below was performed. Mice were sacrificed and the weight of adipose tissue in each area was measured.
Using the same method as in Example 7-5, the amount of IL6 and activin A, which are aging-related inflammation secretory factors (SASP), were measured in serum collected from mice using an enzyme-linked immunosorbent assay (ELISA Kit, purchased from R&D Systems).

[1] = system: MMP3, IL1β, MMP12, IL6, MMP13; experiment: SASP mRNA qRT-PCR in organ tissues of naturally aged mice (Example 7-6); type: in vivo, C57BL6J mice; conditions: LX-112 70 mg/kg oral daily 21 days, aged untreated = 100%
Protocol: as §1
Using cDNA synthesized in the same manner as in Example 7-2, qRT-PCR was performed and analyzed for MMP3, IL1β, MMP12, IL6, and MMP13, which are aging-related inflammation and fibrosis secretory factors (SASP). […] Table 31 calculates the mRNA amount of each factor after senescence was induced as 100% and compared it with the mRNA amount of each factor after treatment with LX-112.

O=c1c2ccccc2[se]n1CCn1[se]c2ccccc2c1=O [LX-112, 1,2-[bis(1,2-benzisoselenazolone-3(2H)-ketone)]ethane]
mRNA (%) CXCL1, Liver (IL6, CXCL1, CXCL10, IL1β): 68 (±21.1) %
mRNA (%) CXCL1, eWAT (IL6, CXCL1, CXCL10, IL1β): 94.8 (±1.2)^ %
mRNA (%) CXCL10, Liver (IL6, CXCL1, CXCL10, IL1β): 84 (±11.5) %
mRNA (%) CXCL10, eWAT (IL6, CXCL1, CXCL10, IL1β): 74 (±11) %
mRNA (%) IL1β, Liver (IL6, CXCL1, CXCL10, IL1β): 42 (±35.2) %
mRNA (%) IL1β, eWAT (IL6, CXCL1, CXCL10, IL1β): 38 (±37) %
mRNA (%) IL6, Liver (IL6, CXCL1, CXCL10, IL1β): 42 (±23.5) %
mRNA (%) IL6, eWAT (IL6, CXCL1, CXCL10, IL1β): 48.6 (±12.5) %
HMGB1 (pg/ml) (HMGB1; 10 μM, culture medium after 6 hours, senescent foreskin cells): 454.9 (±22.4) pg/ml
HMGB1 secreted in the culture medium from dying senescent cells (HMGB1; ABT-263 1 μM or LX-112 10 μM, 6 hours): little change
Survival (%) (SAOS-2; 3 d): 35 (±4) %
Survival (%) (SAOS-2; 7 d): 14 (±5) %
IL6 (%) (IL6, MCP1): 63 (±12.8) %
MCP1 (%) (IL6, MCP1): 58 (±9.8) %
SA-β-gal (%) Kidney (SA-β-gal): 55 (±17) %
SA-β-gal (%) Liver (SA-β-gal): 58 (±6) %
SA-β-gal (%) Lung (SA-β-gal): 67 (±6) %
SA-β-gal (%) Skin (SA-β-gal): 68 (±9) %
SA-β-gal (%) eWAT (SA-β-gal): 38 (±7) %
Activin A (%) (IL6, activin A): 64.5 (±12.3) %
IL6 (%) (IL6, activin A): 51.8 (±14.2) %
mRNA (%) Kidney IL1β [1]: 67 (±3.9) %
mRNA (%) Liver MMP3 [1]: 75 (±13) %
mRNA (%) Lung MMP 12 [1]: 81 (±13) %
mRNA (%) Muscle IL6 [1]: 65 (±21) %
mRNA (%) Skin MMP3 [1]: 92 (±6) %
mRNA (%) Skin MMP12 [1]: 78 (±14) %
mRNA (%) Skin MMP13 [1]: 95 (±2) %

Reference: US20250108036A1, “COMPOSITIONS FOR REMOVING SENESCENT CELLS AND USES THEREOF” (LIFECEUTIX CO., LTD., priority 2021, published 2025)
